“Also recorded” adds a separate entry of the source.

This assay has as its system human PBMCs. Put plainly: Human PBMC cytokine response assay (IFN-γ and IFN-α in cell-free medium by ELISA), with or without cPLGA. The class given is cell-based. The following applies: for immunomodulatory activity (IFN-γ / IFN-α secretion), in words: used alone (no cPLGA); for IFN-a / IFN-g / IFN-a (pg/ml) mean / IFN-g (pg/ml) mean / IFN-a (pg/ml) ×2 / IFN-g (pg/ml) ×4: Table 15; for IFN-a (pg/ml) mean / IFN-g (pg/ml) mean: mean of donors 28185-28188; for IFN-a (pg/ml) ×2: mean ×2; for IFN-g (pg/ml) ×4: mean ×4. For orientation: In an ELISA, binding on a coated surface is turned into a signal by an enzyme label.

Setting [1] is: Table 24, mean of donors 28234-28237.

Turning to “5′-TCG-3′-HEG-5′-TCG-3′-HEG-5′-TCG-3′-HEG-5′-TCG-3′-HEG-5′-TCG-3′-HEG-5′-TCG-3′ [Compound C-32]”, the “activity when formulated with cPLGA, in words” value was “more activity when formulated with cPLGA; also recorded: induced considerable IFN-γ and IFN-α when formulated with cPLGA”; the “immunomodulatory activity (IFN-γ / IFN-α secretion), in words” value is listed as “had activity when used alone”. In addition, where the note is “Table 9, donor 28089”, the IFN-α worked out at 285 pg/mL and the IFN-γ stood at 0 pg/mL. Under “Table 9, donor 28090”, the IFN-α is 31 pg/mL and the IFN-γ was found to be 5 pg/mL. Where the note is “Table 9, donor 28098”, the IFN-α was 46 pg/mL and the IFN-γ came out at 11 pg/mL. Besides, where the note is “Table 9, donor 28099”, the IFN-α was 59 pg/mL and the IFN-γ is 35 pg/mL. In addition, where the note is “Table 9, mean of donors”, the IFN-α mean was determined as 106 pg/mL and the IFN-γ mean was 13 pg/mL. Where the note is “Table 10, donor 28042”, the IFN-α worked out at 0 pg/mL and the IFN-γ was 91 pg/mL. Where the note is “Table 10, donor 28043”, the IFN-α came to 0 pg/mL and the IFN-γ amounted to 19 pg/mL. Also, for the setting “Table 10, donor 28044”, the IFN-α was 8 pg/mL and the IFN-γ was found to be 78 pg/mL. In addition, under “Table 10, donor 28045”, the IFN-α turned out to be 0 pg/mL and the IFN-γ amounted to 17 pg/mL. Moreover, for the setting “Table 10, mean of donors”, the IFN-α mean came to 2 pg/mL and the IFN-γ mean came to 51 pg/mL.
As to 5′-TCG-3′-(ab)3-5′-T-3′ [Compound C-91], the “activity when formulated with cPLGA, in words” value is “significant activity when formulated on cPLGA”; the “IFN-a (pg/ml) mean” value was 24 pg/mL; the “IFN-g (pg/ml) mean” value was found to be 5 pg/mL; the “IFN-a (pg/ml) ×2” value is 48 pg/mL. Also, the “IFN-g (pg/ml) ×4” value is 20 pg/mL and the “immunomodulatory activity (IFN-γ / IFN-α secretion), in words” value was “neither CIC was active on its own”. Also, for the setting “donor 28185”, the “IFN-a” value stood at 9 pg/mL and the “IFN-g” value was determined as 3 pg/mL. For the same substance, for the setting “donor 28186”, the “IFN-a” value came to 46 pg/mL and the “IFN-g” value was 4 pg/mL. For the setting “donor 28187”, the “IFN-a” value turned out to be 37 pg/mL and the “IFN-g” value was found to be 6 pg/mL. Moreover, for the setting “donor 28188”, the “IFN-a” value is 4 pg/mL and the “IFN-g” value worked out at 7 pg/mL.
Take “(5′-TCGTCGA-3′-HEG)2-glycerol-HEG-5′-AACGTTC-3′-HEG-5′-TCGA-3′ [Compound C-97]”: the “IFN-a (pg/ml) mean” value stood at 96 pg/mL, the “IFN-g (pg/ml) mean” value was 101 pg/mL, the “IFN-a (pg/ml) ×2” value turned out to be 192 pg/mL and the “IFN-g (pg/ml) ×4” value worked out at 405 pg/mL. Besides, where the note is “Table 24, donor 28234”, the IFN-α worked out at 16 pg/mL and the IFN-γ stood at 10 pg/mL. For the setting “Table 24, donor 28235”, this substance yielded an IFN-α of 16 pg/mL and an IFN-γ of 119 pg/mL. For the setting “Table 24, donor 28236”, this substance returned an IFN-α of 140 pg/mL and an IFN-γ of 269 pg/mL. Where the note is “Table 24, donor 28237”, this substance showed an IFN-α of 16 pg/mL and an IFN-γ of 980 pg/mL. Under setting [1], the IFN-α mean came out at 47 pg/mL and the IFN-γ mean came to 345 pg/mL. Also, for the setting “donor 28185”, the “IFN-a” value was 307 pg/mL and the “IFN-g” value amounted to 259 pg/mL. Moreover, under “donor 28186”, the “IFN-a” value came to 71 pg/mL and the “IFN-g” value stood at 16 pg/mL. Moreover, where the note is “donor 28187”, the “IFN-a” value came to 4 pg/mL and the “IFN-g” value is 125 pg/mL. Further, for the setting “donor 28188”, the “IFN-a” value is 2 pg/mL and the “IFN-g” value was found to be 5 pg/mL. In addition, the “IFN-α induction, in words” value (used alone) is on record as “reduction of IFN-α induction”.
Turning to 5′-TCG-3′-HEG-5′-T-3′ [Compound C-68], the “IFN-a (pg/ml) mean” value was determined as 11 pg/mL, the “IFN-g (pg/ml) mean” value amounted to 2 pg/mL, the “IFN-a (pg/ml) ×2” value came out at 23 pg/mL and the “IFN-g (pg/ml) ×4” value was found to be 7 pg/mL. The “immunomodulatory activity (IFN-γ / IFN-α secretion), in words” value was “neither CIC was active on its own”. Under “donor 28185”, the “IFN-a” value came to 4 pg/mL and the “IFN-g” value stood at 0 pg/mL. Moreover, for the setting “donor 28186”, the “IFN-a” value came to 13 pg/mL and the “IFN-g” value was found to be 4 pg/mL. Moreover, under “donor 28187”, the “IFN-a” value stood at 25 pg/mL and the “IFN-g” value amounted to 2 pg/mL. Under “donor 28188”, the “IFN-a” value was 4 pg/mL and the “IFN-g” value stood at 1 pg/mL.

For the origin of these results see US9028845B2, “Chimeric immunomodulatory compounds and methods of using the same-IV” (Dynavax Technologies Corporation, priority 2001, dated 2015).
